Six compounds from ChEMBL document CHEMBL4765380, “Synthesis, structure and anticancer activity of new geldanamycin amine analogs containing C(17)- or C(20)- flexible and rigid arms as well as closed or open ansa-bridges” (Eur J Med Chem, 2020) can be followed below.

The IC50 is the concentration that inhibits the measured activity by half. One may read the Kd as the constant that tells how readily two partners part at equilibrium. In general, logP refers to a log measure of how a compound divides between an organic and an aqueous phase. Higher therefore signals a more lipophilic compound.

One data set has as its system SK-BR-3. Nature of the data set: Antiproliferative activity against human SK-BR-3 cells assessed as reduction in cell growth incubated for 72 hrs by SRB assay. The data set is classed as functional, cell-based. As to conditions: SK-BR-3, 72 h. (In SRB staining, fixed cells bind dye roughly in proportion to their protein.)
Another data set relates to SK-OV-3. Nature of the data set: Antiproliferative activity against human SK-OV-3 cells assessed as reduction in cell growth incubated for 72 hrs by SRB assay. The data set is classed as functional, cell-based. The settings on record: SK-OV-3, 72 h.
A further data set deals with PC-3. Nature of the data set: Antiproliferative activity against human PC-3 cells assessed as reduction in cell growth incubated for 72 hrs by SRB assay. The settings on record: PC-3, 72 h. The data set is classed as functional, cell-based.
The next data set concerns U-87 MG. Kind of data set: Antiproliferative activity against human U-87 MG cells assessed as reduction in cell growth incubated for 72 hrs by SRB assay. The data set is classed as functional, cell-based, U-87MG ATCC.
The subject of a further data set is A549. Nature of the data set: Antiproliferative activity against human A549 cells assessed as reduction in cell growth incubated for 72 hrs by SRB assay. Format: functional, cell-based. The settings on record: A549, 72 h.
Data set [1] is described as follows: Cytotoxicity against human HDF cells assessed as reduction in cell growth incubated for 72 hrs by SRB assay. Format: cell-based. As to conditions: HDFa.
The nature of data set [2]: Selectivity index, ratio of IC50 for cytotoxicity against human HDF cells to IC50 for cytotoxicity against human SK-BR-3 cells. The data set is classed as toxicity, cell-based. The settings on record: HDF cells versus SK-BR-3 cells, read-out: Ratio IC50.
Data set [3] is described as follows: Selectivity index, ratio of IC50 for cytotoxicity against human HDF cells to IC50 for cytotoxicity against human SK-OV-3 cells.
A short description of data set [4]: Selectivity index, ratio of IC50 for cytotoxicity against human HDF cells to IC50 for cytotoxicity against human PC-3 cells. The data set is classed as toxicity, cell-based. As to conditions: HDF cells versus PC-3 cells, read-out: Ratio IC50.
The nature of data set [5]: Selectivity index, ratio of IC50 for cytotoxicity against human HDF cells to IC50 for cytotoxicity against human U-87 MG cells. Format: toxicity, cell-based. As to conditions: HDF cells versus U-87 MG cells, read-out: Ratio IC50.
The nature of data set [6]: Selectivity index, ratio of IC50 for cytotoxicity against human HDF cells to IC50 for cytotoxicity against human A549 cells. The data set is classed as toxicity, cell-based. The settings on record: HDF cells versus A549 cells, read-out: Ratio IC50.
The nature of data set [7]: Binding affinity to yeast HSP90 assessed as dissociation constant by isothermal titration calorimetry. Further details: species or system Saccharomyces cerevisiae. On the technique in general: Isothermal titration calorimetry measures the heat released or taken up as one component is titrated into another.
Data set [8] can be described thus: Binding affinity to HSP90 (unknown origin). Further details: species or system Homo sapiens.
Data set [9] is described as follows: Octanol/water partition coefficient, logP of compound incubated for 1 hr by UV-visible spectrophotometry. Format: physicochemical.
The nature of data set [10]: Binding affinity to HSP90 (unknown origin) assessed as dissociation constant by isothermal titration calorimetry. Details: species or system Homo sapiens.

Consider `COC1=C2C[C@@H](C)C[C@H](OC)[C@H](O)[C@@H](C)/C=C(\C)[C@H](OC(N)=O)[C@@H](OC)/C=C\C=C(/C)C(=O)NC(=CC1=O)C2=O` [GELDANAMYCIN], for which the concentration for half-maximal inhibition (IC50) in the data set with SK-BR-3 worked out at 0.87 µM; in the data set with SK-OV-3, 0.94 µM; in the data set with PC-3, 0.73 µM; with U-87 MG it was 0.81 µM; in the data set on A549, 0.99 µM; in [1], 2.13 µM. Moreover, the selectivity ratio came out at 2.45 in [2], 2.92 in data set [4], 2.62 in data set [5] and 2.15 in data set [6]. The “Ratio IC50” value in [3] was 2.27. In addition, the Kd was 1.22 µM in data set [7] and 10.5 µM in data set [8].
Consider `C=CCNC1=C2C[C@@H](C)C[C@H](OC)[C@H](O)[C@@H](C)/C=C(\C)[C@H](OC(N)=O)[C@@H](OC)/C=C\C=C(/C)C(=O)NC(=CC1=O)C2=O` [TANESPIMYCIN], for which the 50% inhibitory concentration (IC50) in the data set on SK-BR-3 is 0.038 µM; with SK-OV-3 it was 0.22 µM; in the data set on PC-3 it was 0.062 µM; in the data set with U-87 MG it was over 10 µM; with A549 it was over 10 µM; in [1], 1.2 µM. For the same compound, the selectivity ratio in [2] turned out to be 49; in data set [5], 51; in [6], 52. This compound also displayed a Kd in [8] of 2.48 µM.
For the compound `CCOC(=O)N1CCC(NC2=C3C[C@@H](C)C[C@H](OC)[C@H](O)[C@@H](C)/C=C(\C)[C@H](OC(N)=O)[C@@H](OC)/C=C\C=C(/C)C(=O)NC(=CC2=O)C3=O)CC1`, the IC50 in the data set on SK-BR-3 came to 1.58 µM; with PC-3 it was 1.15 µM; with U-87 MG, 1.09 µM; in the data set with A549, 1.13 µM; in [1], 5.39 µM. Besides, the selectivity ratio in [2] is 3.41; in data set [4] it was 4.69; in data set [5] it was 4.94; in data set [6] it was 4.77. Besides, the “Ratio IC50” value in [3] was 3.96. Also, the logP at 1 h in data set [9] came to 2.39. The Kd in data set [10] is 0.89 µM.
Take `CCOC(=O)C1CCC(CNC2=C3C[C@@H](C)C[C@H](OC)[C@H](O)[C@@H](C)/C=C(\C)[C@H](OC(N)=O)[C@@H](OC)/C=C\C=C(/C)C(=O)NC(=CC2=O)C3=O)CC1` (some centres undefined): the half-inhibitory concentration (IC50) in the data set on SK-BR-3 turned out to be 0.59 µM; with SK-OV-3, 0.55 µM; in the data set with PC-3, 0.57 µM; with U-87 MG, 0.62 µM; in the data set with A549, 0.59 µM; in [1] it was 2.15 µM. Further, the selectivity ratio in [2] was found to be 3.64; in data set [4], 3.21; in [5], 3.47; in data set [6], 3.64. In addition, the “Ratio IC50” value in data set [3] turned out to be 3.91. The compound further gave a logP at 1 h in [9] of 2.9. In data set [10], the Kd was 0.9 µM.
As to `COCCOCCOCCNC1=C2C[C@@H](C)C[C@H](OC)[C@H](O)[C@@H](C)/C=C(\C)[C@H](OC(N)=O)[C@@H](OC)/C=C\C=C(/C)C(=O)NC(=CC1=O)C2=O`, the IC50 in the data set on SK-BR-3 turned out to be 0.93 µM; in the data set on SK-OV-3, 0.74 µM; with PC-3, 0.81 µM; with U-87 MG, 0.79 µM; with A549, 0.91 µM; in data set [1] it was 2.77 µM. Besides, the selectivity ratio in data set [2] is 2.98; in [4], 3.42; in data set [5], 3.51; in [6], 3.04. Besides, the “Ratio IC50” value in data set [3] is 3.74. Besides, in [9], the logP at 1 h came out at 2.02. For the same compound, in data set [10], the Kd worked out at 1.37 µM.
Take `CO[C@H]1/C=C\C=C(/C)C(=O)NC2=CC(=O)C(NC3CCN(C(=O)OC(C)(C)C)CC3)=C(C[C@@H](C)C[C@H](OC)[C@H](O)[C@@H](C)/C=C(\C)[C@@H]1OC(N)=O)C2=O`: the IC50 in the data set with SK-BR-3 is 0.077 µM; in the data set on SK-OV-3 it was 0.083 µM; in the data set on PC-3 it was 0.19 µM; in the data set with U-87 MG it was 0.084 µM; with A549 it was 0.077 µM; in [1], 2.55 µM. For the same compound, the selectivity ratio in [2] stood at 33.1; in data set [4] it was 13.4; in data set [5] it was 30.4; in data set [6] it was 33.1. For the same compound, the “Ratio IC50” value in data set [3] is 30.7. The compound further displayed a logP at 1 h in data set [9] of 3.11. Further, the Kd in data set [10] came out at 0.82 µM.
